Like-named read-outs stand apart in the source and are kept apart here.

For orientation: IC50 means the concentration at which inhibition is half-maximal.

Assay [1] addresses JAK2 (Homo sapiens (Human), UniProt O60674). Nature of the assay: Jak Biochemical HTRF Assay, JAK2. The text has this: (§1) Jak Biochemical HTRF Assay Protocol
(§2) Subsequent reagent additions employed an Agilent Bravo.
(TR-FRET usually uses a lanthanide donor and a delayed reading to cut background.)

Assay [2] addresses JAK1 (Homo sapiens (Human), UniProt P23458). In words: Jak Biochemical HTRF Assay, JAK1. Particulars: read-out: JAK1 IC50.
Excerpt: as §1, §2

Where [3] appears, read: HTRF biochemical assay, GST-tagged catalytic domain, top concentration tested […].

Sequence of JAK1 (P23458 875-1153): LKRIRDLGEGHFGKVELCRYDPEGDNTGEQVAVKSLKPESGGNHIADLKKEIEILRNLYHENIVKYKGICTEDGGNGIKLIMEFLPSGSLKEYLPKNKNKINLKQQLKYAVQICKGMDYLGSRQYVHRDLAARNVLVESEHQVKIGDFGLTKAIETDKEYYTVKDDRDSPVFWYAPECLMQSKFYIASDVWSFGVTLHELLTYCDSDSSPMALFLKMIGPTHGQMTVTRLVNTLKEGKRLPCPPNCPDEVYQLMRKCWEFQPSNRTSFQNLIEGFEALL
Sequence of JAK2 (O60674 849-1124): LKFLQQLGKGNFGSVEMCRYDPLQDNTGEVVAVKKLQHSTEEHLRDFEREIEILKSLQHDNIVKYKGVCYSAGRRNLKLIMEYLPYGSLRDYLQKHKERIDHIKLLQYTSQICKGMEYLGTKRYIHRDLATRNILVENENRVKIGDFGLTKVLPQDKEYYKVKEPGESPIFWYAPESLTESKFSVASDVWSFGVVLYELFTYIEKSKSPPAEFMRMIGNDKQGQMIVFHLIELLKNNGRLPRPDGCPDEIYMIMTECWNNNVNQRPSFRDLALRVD

For the compound `N#CCC1(n2cc(C(N)=O)c(Nc3ccnc(F)c3)n2)CCC(NCc2ccccc2Cl)CC1` (stereo not drawn) [Example 41-10, Cis or trans 1-{4-[(2-chlorobenzyl)amino]-1-(cyanomethyl)cyclohexyl}-3-[(2-fluoropyridin-4-yl)amino]-1H-pyrazole-4-carboxamide], the results for the IC50 in assay [1] (setting [3]) and in assay [2] (setting [3]) were 2 nM and 0.03 nM, respectively.

Take `N#CCC1(n2cc(C(N)=O)c(Nc3ccnc(F)c3)n2)CCN(C(=O)CC2CCCO2)CC1` (stereo not drawn) [Example 34-39, 1-[4-(cyanomethyl)-1-(tetrahydrofuran-2-ylacetyl)piperidin-4-yl]-3-[(2-fluoropyridin-4-yl)amino]-1H-pyrazole-4-carboxamide]: the 50% inhibitory concentration (IC50) in assay [1] (setting [3]) was 42 nM; in assay [2] (setting [3]), 0.9 nM.

For `N#CCC1(n2cc(C(N)=O)c(Nc3ccc(F)cc3)n2)CCN(c2ccc(F)cc2)CC1` [Example 3-38, 1-[4-(cyanomethyl)-1-(4-fluorophenyl)piperidin-4-yl]-3-[(4-fluorophenyl)amino]-1H-pyrazole-4-carboxamide], the IC50 was 37 nM in assay [1] (setting [3]) and 2 nM in assay [2] (setting [3]).

As to `CCS(=O)(=O)N1CC(CC#N)(n2cc(C(N)=O)c(Nc3ccc(C(=O)N4CCS(=O)(=O)CC4)cc3)n2)C1` [Example 2-13, 1-[3-(cyanomethyl)-1-(ethylsulfonyl)azetidin-3-yl]-3-({4-[(1,1-dioxidothiomorpholin-4-yl)carbonyl]phenyl}amino)-1H-pyrazole-4-carboxamide], the half-maximal inhibitory concentration (IC50) is 38 nM in assay [1] (setting [3]) and 27 nM in assay [2] (setting [3]).

For `N#CCC1(n2cc(C(N)=O)c(Nc3ccnc(F)c3)n2)CCN(Cc2ccc(F)cc2)CC1` [Example 22-11, 1-[4-(cyanomethyl)-1-(4-fluorobenzyl)piperidin-4-yl]-3-[(2-fluoropyridin-4-yl)amino]-1H-pyrazole-4-carboxamide], the IC50 was determined as 4 nM in assay [1] (setting [3]) and 0.1 nM in assay [2] (setting [3]).

Turning to `CC(C)COC(=O)N1CCC(CC#N)(n2cc(C(N)=O)c(Nc3ccccc3)n2)CC1` [Example 30-28, 2-methylpropyl 4-[4-carbamoyl-3-(phenylamino)-1H-pyrazol-1-yl]-4-(cyanomethyl)piperidine-1-carboxylate], the results for the IC50 in assay [1] (setting [3]) and in assay [2] (setting [3]) were 102 nM and 3 nM, respectively.

Consider `N#CCC1(n2cc(C(N)=O)c(Nc3ccnc(F)c3)n2)CCN(C(=O)Cn2ccnc2)CC1` [Example 34-52, 1-[4-(cyanomethyl)-1-(1H-imidazol-1-ylacetyl)piperidin-4-yl]-3-[(2-fluoropyridin-4-yl)amino]-1H-pyrazole-4-carboxamide], for which the IC50 was determined as 154 nM in assay [1] (setting [3]) and 4 nM in assay [2] (setting [3]).

For the compound `N#CC[C@]1(n2cc(C(N)=O)c(Nc3ccccc3)n2)CC[C@H](C(=O)NCC(F)(F)F)CC1` [Example 45-2, cis or trans 1-{1-(cyanomethyl)-4-[(2,2,2-trifluoroethyl)carbamoyl]cyclohexyl}-3-(phenylamino)-1H-pyrazole-4-carboxamide], the half-inhibitory concentration (IC50) in assay [1] was 1480 nM; in assay [2] it was 378 nM.

`N#CCC1(n2cc(C(N)=O)c(Nc3ccc(F)cc3)n2)CCC(Nc2ccccc2)CC1` (stereo not drawn) [Example 40-96, Cis or trans 1-[1-(cyanomethyl)-4-(phenylamino)cyclohexyl]-3-[(4-fluorophenyl)amino]-1H-pyrazole-4-carboxamide]: the IC50 in assay [1] (setting [3]) worked out at 2 nM; in assay [2] (setting [3]), 0.09 nM.

For `N#CCC1(n2cc(C(N)=O)c(Nc3ccccc3)n2)CCN(C(=O)C2CCCO2)CC1` (stereo not drawn) [Example 34-6, 1-[4-(cyanomethyl)-1-(tetrahydrofuran-2-ylcarbonyl)piperidin-4-yl]-3-(phenylamino)-1H-pyrazole-4-carboxamide], the 50% inhibitory concentration (IC50) worked out at 107 nM in assay [1] (setting [3]) and 5 nM in assay [2] (setting [3]).

Consider `N#CCC1(n2cc(C(N)=O)c(Nc3ccc(F)cc3)n2)CCN(c2cncc(F)c2)CC1` [Example 3-5, 1-[4-(cyanomethyl)-1-(5-fluoropyridin-3-yl)piperidin-4-yl]-3-[(4-fluorophenyl)amino]-1H-pyrazole-4-carboxamide], for which the half-inhibitory concentration (IC50) came to 4 nM in assay [1] (setting [3]) and 0.2 nM in assay [2] (setting [3]).

For `N#CCC1(n2cc(C(N)=O)c(Nc3ccnc(F)c3)n2)CCC(NCc2cccnc2)CC1` (stereo not drawn) [Example 41-22, Cis or trans 1-{1-(cyanomethyl)-4-[(pyridin-3-ylmethyl)amino]cyclohexyl}-3-[(2-fluoropyridin-4-yl)amino]-1H-pyrazole-4-carboxamide], the results for the IC50 in assay [1] (setting [3]) and in assay [2] (setting [3]) were 1050 nM and 28 nM, respectively.

Take `N#CCC1(n2cc(C(N)=O)c(Nc3ccccc3)n2)CN(C(=O)OCc2ccccc2)C1` [Example 30-53, benzyl 3-[4-carbamoyl-3-(phenylamino)1H-pyrazol-1-yl]-3-(cyanomethyl)azetidine-1-carboxylate]: the concentration for half-maximal inhibition (IC50) was 262 nM in assay [1] (setting [3]) and 11 nM in assay [2] (setting [3]).

For `CCC(F)(F)C(=O)N1CCC(CC#N)(n2cc(C(N)=O)c(Nc3ccnc(F)c3)n2)CC1` [Example 34-59, 1-[4-(cyanomethyl)-1-(2,2-difluorobutanoyl)piperidin-4-yl]-3-[(2-fluoropyridin-4-yl)amino]-1H-pyrazole-4-carboxamide], the half-inhibitory concentration (IC50) was found to be 3 nM in assay [1] (setting [3]) and 0.2 nM in assay [2] (setting [3]).

Regarding `CS(=O)(=O)N1CC(CC#N)(n2cc(C(N)=O)c(Nc3ccccc3)n2)C1` [Example 37-16, 1-[3-(cyanomethyl)-1-(methylsulfonyl)azetidin-3-yl]-3-(phenylamino)-1H-pyrazole-4-carboxamide], the IC50 in assay [1] (setting [3]) is 366 nM; in assay [2] (setting [3]), 79 nM.

With `COc1ccc(C(=O)N2CCC(CC#N)(n3cc(C(N)=O)c(Nc4ccccc4)n3)CC2)cc1` [Example 34-18, 1-{4-(cyanomethyl)-1-[(4-methoxyphenyl)carbonyl]piperidin-4-yl}-3-(phenylamino)-1H-pyrazole-4-carboxamide], the concentration for half-maximal inhibition (IC50) was found to be 137 nM in assay [1] (setting [3]) and 8 nM in assay [2] (setting [3]).

Take `N#CCC1(n2cc(C(N)=O)c(Nc3ccc(F)cc3)n2)CCC(N2Cc3ccccc3C2)CC1` (stereo not drawn) [Example 40-90, Cis or trans 1-[1-(cyanomethyl)-4-(1,3-dihydro-2H-isoindol-2-yl)cyclohexyl]-3-[(4-fluorophenyl)amino]-1H-pyrazole-4-carboxamide]: the IC50 was found to be 84 nM in assay [1] (setting [3]) and 9 nM in assay [2] (setting [3]).

In the case of `COc1cc(F)cc(N2CCC(CC#N)(n3cc(C(N)=O)c(Nc4ccc(F)cc4)n3)CC2)c1` [Example 3-12, 1-[4-(cyanomethyl)-1-(3-fluoro-5-methoxyphenyl)piperidin-4-yl]-3-[(4-fluorophenyl)amino]-1H-pyrazole-4-carboxamide], the IC50 amounted to 40 nM in assay [1] (setting [3]) and 2 nM in assay [2] (setting [3]).

For `N#CCC1(n2cc(C(N)=O)c(Nc3ccnc(F)c3)n2)CCN(Cc2cccc3ccnn23)CC1` [Example 22-33, 1-[4-(cyanomethyl)-1-(pyrazolo[1,5-a]pyridin-7-ylmethyl)piperidin-4-yl]-3-[(2-fluoropyridin-4-yl)amino]-1H-pyrazole-4-carboxamide], the IC50 in assay [1] (setting [3]) amounted to 81 nM; in assay [2] (setting [3]), 2 nM.

For the compound `CC(C)(C)OC(=O)N1CCC(CC#N)(n2cc(C(N)=O)c(Nc3cccc(-c4ccc(F)cc4)c3)n2)CC1` [Example 15-2, tert-butyl 4-{4-carbamoyl-3-[(4′-fluorobiphenyl-3-yl)amino]-1H-pyrazol-1-yl}-4-(cyanomethyl)piperidine-1-carboxylate], the concentration for half-maximal inhibition (IC50) in assay [1] (setting [3]) is 1100 nM; in assay [2] (setting [3]), 51 nM.

`CCc1ccccc1NC(=O)N1CC(CC#N)(n2cc(C(N)=O)c(Nc3ccccc3)n2)C1` [Example 38-39, 1-{3-(cyanomethyl)-1-[(2-ethylphenyl)carbamoyl]azetidin-3-yl}-3-(phenylamino)-1H-pyrazole-4-carboxamide]: the half-inhibitory concentration (IC50) in assay [1] (setting [3]) amounted to 303 nM; in assay [2] (setting [3]), 16 nM.

As to `CC1=NOC(CN2CCC(CC#N)(n3cc(C(N)=O)c(Nc4ccnc(F)c4)n3)CC2)C1` (stereo not drawn) [Example 22-42, 1-{4-(cyanomethyl)-1-[(3-methyl-4,5-dihydroisoxazol-5-yl)methyl]piperidin-4-yl}-3-[(2-fluoropyridin-4-yl)amino]-1H-pyrazole-4-carboxamide], the figures for the concentration for half-maximal inhibition (IC50) in assay [1] (setting [3]) and in assay [2] (setting [3]) were 582 nM and 18 nM, respectively.

Turning to `Cc1cc(C(=O)N2CCC(CC#N)(n3cc(C(N)=O)c(Nc4ccccc4)n3)CC2)no1` [Example 34-12, 1-{4-(cyanomethyl)-1-[(5-methylisoxazol-3-yl)carbonyl]piperidin-4-yl}-3-(phenylamino)-1H-pyrazole-4-carboxamide], the IC50 in assay [1] (setting [3]) was found to be 195 nM; in assay [2] (setting [3]), 15 nM.

`CC(C)(C)OC(=O)N1CCC(CC#N)(n2cc(C(N)=O)c(Nc3ccc(C#N)c(F)c3)n2)CC1` [Example 9-26, tert-butyl 4-{4-carbamoyl-3-[(4-cyano-3-fluorophenyl)amino]-1H-pyrazol-1-yl}-4-(cyanomethyl)piperidine-1-carboxylate]: the half-maximal inhibitory concentration (IC50) stood at 7 nM in assay [1] (setting [3]) and 0.4 nM in assay [2] (setting [3]).

Turning to `N#CCC1(n2cc(C(N)=O)c(Nc3ccccc3)n2)CCN(C(=O)OC2CCCC2)CC1` [Example 30-30, cyclopentyl 4-[4-carbamoyl-3-(phenylamino)-1H-pyrazol-1-yl]-4-(cyanomethyl)piperidine-1-carboxylate], the figures for the IC50 in assay [1] (setting [3]) and in assay [2] (setting [3]) were 50 nM and 1 nM, respectively.

For the compound `N#CCC1(n2cc(C(N)=O)c(Nc3ccnc(F)c3)n2)CCC(NCc2ccccc2)CC1` (stereo not drawn) [Example 41-18, Cis or trans 1-[4-(benzylamino)-1-(cyanomethyl)cyclohexyl]-3-[(2-fluoropyridin-4-yl)amino]-1H-pyrazole-4-carboxamide], the IC50 in assay [1] (setting [3]) came to 10 nM; in assay [2] (setting [3]), 0.1 nM.

For `N#CCC1(n2cc(C(N)=O)c(Nc3ccccc3)n2)CCN(S(=O)(=O)C(F)(F)F)CC1` [Example 37-5, 1-{4-(cyanomethyl)-1-[(trifluoromethyl)sulfonyl]piperidin-4-yl}-3-(phenylamino)-1H-pyrazole-4-carboxamide], the results for the IC50 in assay [1] (setting [3]) and in assay [2] (setting [3]) were 6 nM and 0.7 nM, respectively.

The values above are taken from patent publication US9328099B2, “Cyanomethylpyrazole carboxamides as janus kinase inhibitors” (Merck Sharp & Dohme Corp., priority 2011, dated 2016).
